Measurements taken from patent US20230159510A1, “NOVEL PRMT5 INHIBITORS” (AMGEN INC., priority 2020, published 2023).

Experiments:
HCT116 MTAP null cells = assay: HCT116 proliferation assay, MTAP null cells (CellTiter-Glo, 6 days); type: cell-based; details: HCT116-MTAP null, 144 h, read-out: Protif_ HCT116-MTAP null IC50
How it was run: (§1)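 Luminescent viability signal was measured after continuous drug exposure. Before dosing, cells attached overnight (37° C, 5% CO2) in RPMI 1640 + 10% FBS. Dosing used 1:3 steps over 8 or 9 points, starting at 1 or 10 µM, with DMSO-only wells as control.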

HCT116 WT cells = assay: HCT116 proliferation assay, WT cells (CellTiter-Glo, 6 days); type: cell-based; details: Homo sapiens, HCT-116, 144 h, read-out: Prolif_HCT116-WT IC50
How it was run: as §1

PRMT5/MEP50 = PRMT5/MEP50 (Homo sapiens, UniProt O14744); assay: MTase-Glo methyl transferase assay, Method A (Histone H4 peptide, 1 µM MTA, 24 h pre-incubation); type: biochemical; set-up: made in house; details: read-out: PRMT5 MTase Glo Ki (nM, Meth. A)
How it was run: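 Luminescent SAH detection (MTase-Glo) after a 2 h room-temperature methylation of 1 µM biotinylated H4 (1-21) peptide by 10 nM PRMT5/MEP50 with 5 µM SAM, in 50 mM Tris pH 8.0.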

Chain of PRMT5/MEP50 (O14744 whole entry): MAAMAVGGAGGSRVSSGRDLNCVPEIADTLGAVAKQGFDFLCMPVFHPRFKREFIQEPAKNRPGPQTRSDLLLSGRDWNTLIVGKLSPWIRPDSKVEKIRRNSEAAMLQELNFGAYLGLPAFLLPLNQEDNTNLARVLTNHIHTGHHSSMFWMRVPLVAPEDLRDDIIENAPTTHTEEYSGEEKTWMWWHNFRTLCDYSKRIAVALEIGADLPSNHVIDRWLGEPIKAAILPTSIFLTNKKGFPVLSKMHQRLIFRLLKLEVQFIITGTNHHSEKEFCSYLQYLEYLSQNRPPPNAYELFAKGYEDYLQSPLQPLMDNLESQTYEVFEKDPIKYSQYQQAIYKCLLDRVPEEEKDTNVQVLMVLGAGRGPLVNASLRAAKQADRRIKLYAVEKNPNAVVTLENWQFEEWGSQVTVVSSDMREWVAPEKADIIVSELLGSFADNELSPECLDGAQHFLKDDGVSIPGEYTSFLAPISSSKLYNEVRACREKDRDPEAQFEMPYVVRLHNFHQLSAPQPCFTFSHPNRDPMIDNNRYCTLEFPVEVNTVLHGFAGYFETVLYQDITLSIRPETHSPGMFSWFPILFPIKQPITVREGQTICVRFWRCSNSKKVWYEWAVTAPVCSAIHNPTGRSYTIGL
Chain of PRMT5/MEP50 (Q9BQA1 whole entry partner): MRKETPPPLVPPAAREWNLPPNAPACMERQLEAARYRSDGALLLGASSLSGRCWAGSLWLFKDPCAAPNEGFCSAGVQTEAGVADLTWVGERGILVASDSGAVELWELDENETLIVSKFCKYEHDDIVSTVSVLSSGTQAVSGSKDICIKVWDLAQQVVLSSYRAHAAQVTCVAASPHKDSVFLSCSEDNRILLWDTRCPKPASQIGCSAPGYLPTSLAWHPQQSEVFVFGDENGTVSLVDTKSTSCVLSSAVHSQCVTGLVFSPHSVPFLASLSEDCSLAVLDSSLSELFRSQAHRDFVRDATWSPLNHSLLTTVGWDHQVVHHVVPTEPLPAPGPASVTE

Compound	IC50 (HCT116 MTAP null cells) [nM]	IC50 (HCT116 WT cells) [nM]	Ki (PRMT5/MEP50) [nM]
COc1ccc(CN(C(=O)c2ccc3nc(N)c(Br)cc3c2)[C@H](C)c2ncccn2)nn1 [Example 411, 2-amino-3-bromo-N-((6-methoxy-3-pyridazinyl)methyl)-N-((1R)-1-(2-pyrimidinyl)ethyl)-6-quinolinecarboxamide]	182	> 10000	0.22
COc1ccc(CN(C(=O)c2ccc3nc(N)c(Cl)cc3c2)[C@H](C)c2ncccn2)nn1 [Example 413, 2-amino-3-chloro-N-((6-methoxy-3-pyridazinyl)methyl)-N-((1R)-1-(2-pyrimidinyl)ethyl)-6-quinolinecarboxamide]	655	> 10000	0.65
C[C@H](c1ncccn1)N(Cc1ccc(Cl)cn1)C(=O)c1cnc2nc(N)c(Br)cc2c1 [Example 414, 7-amino-6-bromo-N-((5-chloro-2-pyridinyl)methyl)-N-((1R)-1-(2-pyrimidinyl)ethyl)-1,8-naphthyridine-3-carboxamide]	234	5180	0.3
Cc1cc2cc(C(=O)N(Cc3ccc(Br)nn3)[C@@H]3CCCn4ncnc43)ccc2nc1N [Example 416, 2-amino-N-((6-bromo-3-pyridazinyl)methyl)-3-methyl-N-((8R)-5,6,7,8-tetrahydro[1,2,4]triazolo[1,5-a]pyridin-8-yl)-6-quinolinecarboxamide]	262	6650	0.17
C[C@H](c1ncccn1)N(Cc1ccc(C#N)cn1)C(=O)c1ccc2nc(N)c(Br)cc2c1 [Example 417, 2-amino-3-bromo-N-((5-cyano-2-pyridinyl)methyl)-N-((1R)-1-(2-pyrimidinyl)ethyl)-6-quinolinecarboxamide]	151	> 10000	0.33
C[C@H](c1ncccn1)N(Cc1ccc(C(F)(F)F)cn1)C(=O)c1cc2cc(Br)c(N)nc2cn1 [Example 419, 2-amino-3-bromo-N-((1R)-1-(2-pyrimidinyl)ethyl)-N-((5-(trifluoromethyl)-2-pyridinyl)methyl)-1,7-naphthyridine-6-carboxamide]	271	> 10000	0.16
C[C@H](c1ncccn1)N(Cc1ccc(C(F)(F)F)cn1)C(=O)c1cnc2nc(N)c(Cl)cc2c1 [Example 420, 7-amino-6-chloro-N-((1R)-1-(2-pyrimidinyl)ethyl)-N-((5-(trifluoromethyl)-2-pyridiny1)methyl)-1,8-naphthyridine-3-carboxamide]	225	3450	0.18

The next lines start with the values.

IC50 (HCT116 MTAP null cells) [nM]	IC50 (HCT116 WT cells) [nM]	Ki (PRMT5/MEP50) [nM]	Compound
123	4050	0.18	C[C@H](c1ncccn1)N(Cc1ccc(Cl)cn1)C(=O)c1ccc2nc(N)c(Br)cc2c1 [Example 412, 2-amino-3-bromo-N-((5-chloro-2-pyridinyl)methyl)-N-((1R)-1-(2-pyrimidinyl)ethyl)-6-quinolinecarboxamide]
39	490	0.54	Cc1cc2cc(C(=O)N(Cc3ccc(Cl)cn3)[C@H](C)c3ncccn3)c(F)cc2nc1N [Example 415, 2-amino-N-((5-chloro-2-pyridinyl)methyl)-7-fluoro-3-methyl-N-((1R)-1-(2-pyrimidinyl)ethyl)-6-quinolinecarboxamide]
500	> 10000	0.27	Cc1cc2cc(C(=O)N(Cc3ccc(C#N)cn3)[C@H](C)c3ncccn3)ncc2nc1N [Example 418, 2-amino-N-((5-cyano-2-pyridinyl)methyl)-3-methyl-N-((1R)-1-(2-pyrimidinyl)ethyl)-1,7-naphthyridine-6-carboxamide]
56	1130	0.54	Cc1cc2cc(C(=O)N(Cc3ccc(C#N)cn3)[C@@H](c3ncccn3)C3CC3)c(F)cc2nc1N [Example 421, 2-amino-N-((5-cyano-2-pyridinyl)methyl)-N-((R)-cyclopropyl(2-pyrimidinyl)methyl)-7-fluoro-3-methyl-6-quinolinecarboxamide]
